Laboratory results reported in paper PMC9098913, “In vitro reconstitution of Escherichia coli divisome activation” (Nature Communications, 2022).
Several values for one entry are separate records, joined by “and”; a condition that tells them apart may be missing. Equal values may be shown once. Read-outs that look alike come from different tables or passages of the source.

Assays:
[1] = Single-molecule membrane residence time of FtsA; assay type: binding; parameters: Single Molecule Lifetime: unit not given here; conditions: for Single Molecule Lifetime, mean: mean of Exp. 1-3, n = 3, Fig. 3b
Method: (§1) First, we studied the behaviour of single FtsA proteins on the membrane surface.
(§2) After 5 min of incubation, single molecule time lapses were acquired every 125, 250, 500, and 1000 and 2000 ms, with an exposure time of 50 ms. Subsequently, the bulk concentration of FtsA was increased to 0.2/0.4/0.8 µM and time lapses were repeated as described above.
(§3) Single molecules of FtsA or FtsZ were tracked using the TrackMate plugin from ImageJ[43]. To obtain the residence time of FtsZ and FtsA, we performed a residence time analysis as described before[40],[47]. Shortly, single molecules were imaged at different acquisition rates (0.1–2 s) and the lifetime of the molecules was extracted from each data set. To account for photobleaching effect, the obtained lifetimes were plotted against the acquisition rate. […] Furthermore, we extracted the diffusion coefficient of FtsA single molecules at increasing concentrations. For this, we filtered the obtained data, by considering only trajectories which are present on the membrane for more than 0.4 s. […] Subsequently, the diffusion coefficient of FtsA molecules was estimated by fitting an MSD curve to each individual trajectory.

[2] = Single-molecule diffusion coefficient of FtsA on the membrane; conditions: for Diffusion Coefficient: single-particle tracking, n = 3; for Single Molecule Diffusion Constant, mean: mean of Exp. 1-3, n = 3, Fig. 3b
Method: as §1, §2, §3

FtsZ [3] = conditions: for Pearson correlation coefficient (PCC) FtsA/FtsZ: 1.25 µM FtsZ, mean ± s.d.
Method: (§4) Additionally, the reaction chamber contained 4 mM ATP and 4 mM GTP, as well as a scavenging system to minimize photobleaching effects: 30 mM d-glucose, 0.050 mg ml^−1 Glucose Oxidase, 0.016 mg ml^−1 Catalase, 1 mM DTT and 1 mM Trolox. Prior addition of all components a corresponding buffer volume was removed from the chamber to obtain a total reaction volume of 100 µl. The dynamic protein pattern was monitored by time-lapse TIRF microscopy at one frame per 2 s and 50 ms exposure time.
Time-lapse videos were first intensity-corrected and contrast-enhanced to avoid bleaching effects and simplify subsequent analysis. To remove contributions of X–Y drift, the videos were processed with the Linear Stack Alignment with SIFT plugin. […] Subsequently, regions of interest (ROIs) in the center of the stacks were chosen for colocalization analysis. The Pearson’s correlation coefficient (PCC) was quantified with the Image CorrelationJ 1o plugin. To extract information about the relative ratio of FtsZ/FtsA molecules (slope of linear regression), we also used the Image CorrelationJ 1o plugin. As an output, the plugin provides a scatterplot of FtsZ vs FtsA intensities, to which we fitted a linear slope y=k⋅x+d , where k is the slope and d the offset. The slope was used as an estimate for the ratio of FtsA molecules below FtsZ filaments[42].

FtsZ [4] = test system: FtsZ;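 as to PCC FtsA/FtsZ, mean of experiment (head 'Fig.1e PCC'; n and values fit Fig. 1f PCCdiff): pearson correlation of FtsA and FtsZ channels in dual-colour TIRF movies after subtracting consecutive frames to isolate growing filament ends, one frame per 2 s, ATP and GTP present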;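 as to PCCdiff FtsA/FtsZ: pearson correlation of FtsA and FtsZ channels in dual-colour TIRF movies after subtracting consecutive frames to isolate growing filament ends, one frame per 2 s, ATP and GTP present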
Text: For this aim, we prepared differential time lapse movies[24], where we subtract the intensities of consecutive frames to selectively visualize the growing ends of filament bundles (Fig. 1d). We then calculated the Pearson correlation coefficient between the two channels of the differential movies (PCCdiff), which quantifies the covariation of the fluorescence signals for FtsA and FtsZ at the growing end of a filament bundle with a time resolution of the acquisition rate[4],[23],[24].
as §4
Treadmilling dynamics, were quantified using an automated image analysis protocol previously developed by our group[24]. To visualize colocalization of the co-treadmilling FtsZ & FtsA filaments, we used dual-colour videos obtained at an acquisition rate of one frame per 2 s. The two channels were aligned using FIJI’s 3TP align plugin. Both channels were then subjected to the image subtraction protocol and colocalization was measured as described above.

Substance: FtsA WT: wild-type E. coli actin-homologue FtsA, membrane anchor of FtsZ
- Single Molecule Lifetime ([1]; 0.4 µM FtsA, Exp. 1): 28.70
- Single Molecule Lifetime ([1]; 0.4µM FtsA, Exp. 2): 24.00
- Single Molecule Lifetime ([1]; 0.4 µM FtsA, Exp. 3): 26.30
- Single Molecule Lifetime, mean ([1]; 0.4 µM FtsA): 26.33
- Single Molecule Lifetime ([1]; 0.8 µM FtsA, Exp. 1): 37.60
- Single Molecule Lifetime ([1]; 0.8µM FtsA, Exp. 2): 32.60
- Single Molecule Lifetime ([1]; 0.8 µM FtsA, Exp. 3): 35.20
- Single Molecule Lifetime, mean ([1]; 0.8 µM FtsA): 35.13
- mean residence time on the membrane ([1]; 0.8 µM FtsA, single-particle tracking, n = 3): 35.1 ± 2.0 s
- Single Molecule Diffusion Constant ([2]; 0.1 µM FtsA, Exp. 1): 0.1660 µm2/s
- Single Molecule Diffusion Constant ([2]; 0.1µM FtsA, Exp. 2): 0.0799 µm2/s
- Single Molecule Diffusion Constant ([2]; 0.1 µM FtsA, Exp. 3): 0.1610 µm2/s
- Diffusion Coefficient ([2]; 0.1 µM FtsA): 0.14 ± 0.04 µm^2/s
- Single Molecule Diffusion Constant ([2]; 0.2 µM FtsA, Exp. 1): 0.0839 µm2/s
- Single Molecule Diffusion Constant ([2]; 0.2µM FtsA, Exp. 2): 0.0498 µm2/s
- Single Molecule Diffusion Constant ([2]; 0.2 µM FtsA, Exp. 3): 0.0248 µm2/s
- Single Molecule Diffusion Constant, mean ([2]; 0.2 µM FtsA): 0.053 µm2/s and 0.0528 µm2/s
- Single Molecule Diffusion Constant ([2]; 0.4 µM FtsA, Exp. 1): 0.0130 µm2/s
- Single Molecule Diffusion Constant ([2]; 0.4µM FtsA, Exp. 2): 0.0096 µm2/s
- Single Molecule Diffusion Constant ([2]; 0.4 µM FtsA, Exp. 3): 0.0225 µm2/s
- Single Molecule Diffusion Constant, mean ([2]; 0.4 µM FtsA): 0.015 µm2/s and 0.0150 µm2/s
- Single Molecule Diffusion Constant ([2]; 0.8 µM FtsA, Exp. 1): 0.0048 µm2/s
- Single Molecule Diffusion Constant ([2]; 0.8µM FtsA, Exp. 2): 0.0025 µm2/s
- Single Molecule Diffusion Constant ([2]; 0.8 µM FtsA, Exp. 3): 0.0035 µm2/s
- Diffusion Coefficient ([2]; 0.8 µM FtsA): 0.004 ± 0.001 µm^2/s
- Pearson correlation coefficient (PCC) FtsA/FtsZ (FtsZ [3]; 0.1 µM FtsA, steady state about 15 min): 0.78 ± 0.04
- PCC FtsZ/FtsA (FtsZ [3]; 0.1µM FtsA, Exp. 2): 0.79
- PCC FtsZ/FtsA (FtsZ [3]; 0.1µM FtsA, replicate 1 (row printed 'goo')): 0.77
- Pearson correlation coefficient (PCC) FtsA/FtsZ (FtsZ [3]; 0.2 µM FtsA, steady state about 15 min): 0.69 ± 0.06
- PCC FtsZ/FtsA (FtsZ [3]; 0.2µM FtsA, Exp. 2): 0.62
- PCC FtsZ/FtsA (FtsZ [3]; 0.2µM FtsA, replicate 1 (row printed 'goo')): 0.61
- Pearson correlation coefficient (PCC) FtsA/FtsZ (FtsZ [3]; 0.4 µM FtsA, WT vs R286W p-value 1.28 × 10^−5): 0.32 ± 0.12
- PCC FtsZ/FtsA (FtsZ [3]; 0.4µM FtsA, Exp. 2): 0.40
- PCC FtsZ/FtsA (FtsZ [3]; 0.4µM FtsA, replicate 1 (row printed 'goo')): 0.43
- Pearson correlation coefficient (PCC) FtsA/FtsZ (FtsZ [3]; 0.8 µM FtsA): 0.27 ± 0.09
- PCC FtsZ/FtsA (FtsZ [3]; 0.8µM FtsA, Exp. 2): 0.29
- PCC FtsZ/FtsA (FtsZ [3]; 0.8µM FtsA, replicate 1 (row printed 'goo')): 0.38
- PCC FtsA/FtsZ, mean of experiment (head 'Fig.1e_PCC'; n and values fit Fig. 1f PCCdiff) (FtsZ [4]; 0.1µM FtsAs, replicate column 1): 0.69
- PCC FtsA/FtsZ, mean of experiment (head 'Fig.1e_PCC'; n and values fit Fig. 1f PCCdiff) (FtsZ [4]; 0.1µM FtsAs, replicate column 2): 0.76
- PCC FtsA/FtsZ, mean of experiment (head 'Fig.1e_PCC'; n and values fit Fig. 1f PCCdiff) (FtsZ [4]; 0.1µM FtsAs, replicate column 3): 0.71
- PCC FtsA/FtsZ, mean of experiment (head 'Fig.1e_PCC'; n and values fit Fig. 1f PCCdiff) (FtsZ [4]; 0.1µM FtsAs, replicate column 4): 0.71
- PCC FtsA/FtsZ, mean of experiment (head 'Fig.1e_PCC'; n and values fit Fig. 1f PCCdiff) (FtsZ [4]; 0.1µM FtsAs, replicate column 5): 0.86
- PCC FtsA/FtsZ, mean of experiment (head 'Fig.1e_PCC'; n and values fit Fig. 1f PCCdiff) (FtsZ [4]; 0.1µM FtsAs, replicate column 6): 0.67
- PCC FtsA/FtsZ, mean of experiment (head 'Fig.1e_PCC'; n and values fit Fig. 1f PCCdiff) (FtsZ [4]; 0.2µM FtsAs, replicate column 1): 0.62
- PCC FtsA/FtsZ, mean of experiment (head 'Fig.1e_PCC'; n and values fit Fig. 1f PCCdiff) (FtsZ [4]; 0.2µM FtsAs, replicate column 2): 0.58
- PCC FtsA/FtsZ, mean of experiment (head 'Fig.1e_PCC'; n and values fit Fig. 1f PCCdiff) (FtsZ [4]; 0.2µM FtsAs, replicate column 3): 0.67
- PCC FtsA/FtsZ, mean of experiment (head 'Fig.1e_PCC'; n and values fit Fig. 1f PCCdiff) (FtsZ [4]; 0.2µM FtsAs, replicate column 4): 0.71
- PCC FtsA/FtsZ, mean of experiment (head 'Fig.1e_PCC'; n and values fit Fig. 1f PCCdiff) (FtsZ [4]; 0.2µM FtsAs, replicate column 5): 0.74
- PCC FtsA/FtsZ, mean of experiment (head 'Fig.1e_PCC'; n and values fit Fig. 1f PCCdiff) (FtsZ [4]; 0.2µM FtsAs, replicate column 6): 0.57
- PCCdiff FtsA/FtsZ (FtsZ [4]; 0.4 µM FtsA, 1.25 µM FtsZ, mean ± s.d., p-value 1.82 × 10^−4): 0.18 ± 0.04
- PCC FtsA/FtsZ, mean of experiment (head 'Fig.1e_PCC'; n and values fit Fig. 1f PCCdiff) (FtsZ [4]; 0.4µM FtsAs, replicate column 1): 0.18
- PCC FtsA/FtsZ, mean of experiment (head 'Fig.1e_PCC'; n and values fit Fig. 1f PCCdiff) (FtsZ [4]; 0.4µM FtsAs, replicate column 2): 0.12
- PCC FtsA/FtsZ, mean of experiment (head 'Fig.1e_PCC'; n and values fit Fig. 1f PCCdiff) (FtsZ [4]; 0.4µM FtsAs, replicate column 3): 0.23
- PCC FtsA/FtsZ, mean of experiment (head 'Fig.1e_PCC'; n and values fit Fig. 1f PCCdiff) (FtsZ [4]; 0.8µM FtsAs, replicate column 1): 0.10
- PCC FtsA/FtsZ, mean of experiment (head 'Fig.1e_PCC'; n and values fit Fig. 1f PCCdiff) (FtsZ [4]; 0.8µM FtsAs, replicate column 2): 0.12
- PCC FtsA/FtsZ, mean of experiment (head 'Fig.1e_PCC'; n and values fit Fig. 1f PCCdiff) (FtsZ [4]; 0.8µM FtsAs, replicate column 3): 0.05
